{
  "source": "patent US20240336630A1",
  "about": "“MAP4K1 INHIBITORS” (Blueprint Medicines Corporation, priority 2021, published 2024)",
  "key": {"[1]": {"target": "T1, MAP4K1 (HPK1) (Homo sapiens, UniProt Q92918)", "T1 construct": "purchased Invitrogen", "T1 sequence (Q92918 whole entry)": "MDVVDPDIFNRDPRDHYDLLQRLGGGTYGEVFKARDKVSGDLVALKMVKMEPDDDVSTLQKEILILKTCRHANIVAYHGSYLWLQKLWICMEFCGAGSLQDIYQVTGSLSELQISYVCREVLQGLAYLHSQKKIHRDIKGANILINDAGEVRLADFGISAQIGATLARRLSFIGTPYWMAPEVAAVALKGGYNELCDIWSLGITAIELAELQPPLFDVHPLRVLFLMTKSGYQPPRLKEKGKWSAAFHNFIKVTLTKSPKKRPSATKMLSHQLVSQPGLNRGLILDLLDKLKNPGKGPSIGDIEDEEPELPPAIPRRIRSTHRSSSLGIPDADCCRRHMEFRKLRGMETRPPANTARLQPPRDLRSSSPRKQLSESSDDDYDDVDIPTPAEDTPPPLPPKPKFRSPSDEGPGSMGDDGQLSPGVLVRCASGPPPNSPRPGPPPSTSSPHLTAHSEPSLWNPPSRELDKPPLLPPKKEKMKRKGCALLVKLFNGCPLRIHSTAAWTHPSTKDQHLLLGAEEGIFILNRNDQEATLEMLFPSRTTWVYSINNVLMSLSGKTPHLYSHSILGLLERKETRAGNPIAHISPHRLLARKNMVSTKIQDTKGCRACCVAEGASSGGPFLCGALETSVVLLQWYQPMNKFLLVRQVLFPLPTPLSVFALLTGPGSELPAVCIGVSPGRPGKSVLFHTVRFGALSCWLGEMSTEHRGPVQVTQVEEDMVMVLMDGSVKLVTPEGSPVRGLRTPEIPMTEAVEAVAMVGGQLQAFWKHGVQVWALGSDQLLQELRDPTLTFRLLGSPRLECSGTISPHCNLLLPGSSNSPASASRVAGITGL", "experiment": "Inhibition of MAP4K1 biochemical enzymatic activity (EZReader 2 electrophoretic mobility shift)", "conditions": "HPK1 (Invitrogen), S6K2tide 1.5 μM, 120 min; ATP 26 μM or 1000 μM, not stated which for Table 3", "source_text": "MAP4K1 (HPK1) and relevant off-target enzymatic activity was monitored using the Perkin Elmer electrophoretic mobility shift technology platform—the EZReader 2. […] Within the linear, steady-state phase of the kinase enzymatic reaction, the mixed pool of phosphorylated (product) and non-phosphorylated (substrate) peptides was passed through the microfluidic system of the PerkinElmer EZ Reader 2, under an applied electric potential difference. The presence of the phosphate group on the product peptide provided a difference in mass and charge between that of the substrate peptide, resulting in a separation of the substrate and product pools in the sample (Perrin et al. 2010). As the product and substrate peptide mixture passes the lasers within the instrument, these pools are detected (λex=488 nm, λem=568 nm) and resolved as separate peaks. The ratio between these peaks reflects the activity of the compound at that concentration, in that well, under those conditions.\nInhibitors were dissolved in 100% DMSO at a stock concentration of 10 mM. A 100×, 10-point, 4-fold serial dilution of each inhibitor was created in 100% DMSO either manually or on a Hamilton STAR liquid handler, starting at a relevant concentration, usually 1 mM. A volume of 0.130 μL of each concentration was transferred to the relevant wells of a 384-well plate (Greiner 781 201) in duplicate using a TTPLabtech Mosquito nano-litre dispenser. Using a Multidrop Combi, the remaining constituents of the kinase reaction were added to the 130 nL of dosed compound as follows (see table below for final reaction details):\nEnzyme activity assays at the ^APPKM for ATP or 1 mM ATP: In each well of a 384-well plate, 0.1-15 nM of untreated enzyme was incubated in a total of 13 μL of buffer (100 mM HEPES pH 7.5, 0.015% Brij 35, 10 mM MgCl2, 1 mM DTT) with 1.5 μM fluorescent peptide and 20-1000 μM ATP, at 25° C., for 60-180 minutes in the presence or absence of a dosed concentration series of compound (1% DMSO final concentration). The kinase reactions were stopped by the addition of 70 μl of Stop buffer (100 mM HEPES pH 7.5, 0.015% Brij 35, 35 mM EDTA and 0.2% of Coating Reagent 3 (Caliper Lifesciences)). The plates were read on a Caliper EZReader 2 as described above."}, "[2]": {"tested_on": "Primary T Cell (expanded CD3+ T cells)", "experiment": "T cell enhancement of cytokines: IL2 measurement (HTRF) in expanded CD3+ T cells stimulated with anti-CD3/anti-CD28", "format": "cell-based", "conditions": "Homo sapiens, plate-bound anti-CD3 and soluble anti-CD28, 24 h, read-out: IL-2 Primary T Cell EC50", "experimental": "T cells are isolated from whole blood of healthy donors by immunomagnetic negative selection following manufacture's protocol (StemCell Technologies, human T cell isolation kit). Purity of isolated cells is assessed by flow cytometry and yields 95-98% CD3^+ T cells. For expansion of T cells, 1×10^6 cells/well are plated in serum free cell expansion media (ThermoFisher) containing 30U of recombinant human IL2 (R&D) and stimulated with 25 ul of CD3/CD28 beads (Invitrogen) in 24 well plates for 3-4 days. T cells are then expanded in 175 cm flasks and maintained at a cell density of 1 to 2.5×10^6 cells/ml days by addition of ⅔ of fresh media every 2-3 days. After 10-14 days, cells are frozen in BamBanker freezing media (Thermo) and stored in liquid nitrogen.\nFor IL2 measurement, expanded CD3^+ T cells are dispensed at 100K cells/well (cultured in X-VIVO 10 Serum-free media) and are stimulated with plate-bound anti-CD3 and soluble anti-CD28 in the presence of vehicle or compound of the disclosure at various concentrations for 24 h. As outlined in the manufacturer's protocol (Cisbio), 16 μL of conditioned media is transferred to a white 384-well low volume plate. Following a 24 h incubation with the anti-IL2 antibodies, the homogenous time resolved fluorescence (HTRF) is measured."}},
  "data": [
    {"smiles": "CC[C@](C)(O)c1cnc(OC2CC2)c2cnc(Nc3ccc4c(n3)C3(CC3)[C@@H](C)OC4=O)cc12", "note": "(single isomer, unassigned) [Compound 27]", "values": [
      {"measurement": "IC50", "setting": "[1]", "value": 1.7, "unit": "nM"},
      {"measurement": "EC50", "setting": "[2]", "value": 42, "unit": "nM"}
    ]},
    {"smiles": "CC[C@@](C)(O)c1cnc(OC2CC2)c2cnc(Nc3ccc4c(n3)[C@@H](C)C(C)(C)OC4=O)cc12", "note": "(single isomer, unassigned) [Compound 31]", "values": [
      {"measurement": "IC50", "setting": "[1]", "value": 0.42, "unit": "nM"},
      {"measurement": "EC50", "setting": "[2]", "value": 47, "unit": "nM"}
    ]},
    {"smiles": "CC[C@](C)(O)c1cnc(OC2CC2)c2cnc(Nc3ccc4c(n3)C3(CC3)C(C)(C)OC4=O)cc12", "note": "(single isomer, unassigned) [Compound 40]", "values": [
      {"measurement": "IC50", "setting": "[1]", "value": 2.09, "unit": "nM"},
      {"measurement": "EC50", "setting": "[2]", "value": 169, "unit": "nM"}
    ]},
    {"smiles": "CC[C@@](C)(O)c1cnc(O[C@H]2C[C@@H](S(C)(=O)=O)C2)c2cnc(Nc3ccc4c(n3)[C@@H](C)[C@H](C)OC4=O)cc12", "note": "(single isomer, unassigned) [Compound 61]", "values": [
      {"measurement": "IC50", "setting": "[1]", "value": 0.39, "unit": "nM"},
      {"measurement": "EC50", "setting": "[2]", "value": 23, "unit": "nM"}
    ]},
    {"smiles": "CC[C@](C)(O)c1cnc(OC2CC2)c2cnc(Nc3ccc4c(n3)C(C)(C)[C@@H](C)OC4=O)cc12", "note": "[Compound 34]", "values": [
      {"measurement": "IC50", "setting": "[1]", "value": 2.53, "unit": "nM"},
      {"measurement": "EC50", "setting": "[2]", "value": 132, "unit": "nM"}
    ]},
    {"smiles": "C[C@@H]1c2nc(Nc3cc4c(C(C)(C)O)cnc(O[C@H]5C[C@@H](S(C)(=O)=O)C5)c4cn3)ccc2C(=O)OC1(C)C", "note": "[Compound 60]", "values": [
      {"measurement": "IC50", "setting": "[1]", "value": 0.29, "unit": "nM"},
      {"measurement": "EC50", "setting": "[2]", "value": 65, "unit": "nM"}
    ]}
  ]
}
